The values that follow come from patent US20050239173A1, “Production of amino sugars” (Cargill, Inc., priority 2003, published 2005).

In assay [1] the target is T1, E. coli N-acetylglucosamine-6-phosphate deacetylase (Escherichia coli, UniProt P0AF18).
T1 construct: The Xa protease recognition site (IEGR) sits directly in front of the start codon of the gene of interest; His-tag (N); S-tag (N); Factor Xa recognition site (IEGR) (N); made in house; host or cells: E. coli BL21(DE3), pET30(Xa/LIC)
Kind of assay: Enzymatic deacetylation of N-acetylglucosamine followed over time (Elson and Morgan assay). The note with it: 37° C.; for [Glucosamine]: 0.1 mL of 500 mM N-acetylglucosamine in 0.2 mL, Tris-HCl pH 7.8, nagA cell extract. Type of assay: biochemical. The protocol:
Fermentation broth and cell extract samples were routinely assayed using the method of Elson and Morgan (Biochem. J. 27:1824-1828) described by Zalkin (1985, Method Enzymol. 113:278-281) and Roden et al. (1997, Anal. Biochem. 254:240-248). Typically, to 0.08 mL of fermentation broth or 0.015 to 0.02 mL of cell extract was added 0.01 mL of saturated sodium bicarbonate solution and 0.01 mL of cold, freshly prepared 5% aqueous acetic anhydride. After a 3 minute incubation at room temperature, the mixture was incubated at 100° C. for 3 min to drive off the excess acetic anhydride. After cooling to room temperature, 0.12 mL of potassium borate, pH 9.2, was added and the mixture was incubated at 100° C. for 3 min. After cooling to room temperature, 1.0 mL of Ehrlich's reagent (1 gram p-dimethylaminobenzaldehyde in 100 mL glacial acetic acid containing 0.125 M HCl) was added to each tube. The tubes were incubated at 37° C. for 20 min and the absorbance at 585 nm was measured. All samples were assayed in duplicate. A standard curve was generated using 0.005 to 0.1 μmole glucosamine for quantification of product formation. Samples were assayed with and without the acetic anhydride addition to determine the amounts of glucosamine and N-acetylglucosamine present in the sample. The amount of N-acetylglucosamine was calculated from the results of assays without the acetic anhydride addition. The amount of glucosamine was calculated as the difference between the results with and without the acetic anhydride addition.
The enzymatic deacetylation of N-acetylglucosamine was followed over time. In a total of 0.2 mL was mixed 0.1 mL of 500 mM N-acetylglucosamine, 0.02 mL of 0.5 M Tris-HCl, pH 7.8 and nagA protein (cell extract fraction; 3.5 mg/mL protein). The mixtures were incubated from 0 to 120 min at 37° C. To distinguish between glucosamine and N-acetylglucosamine using the Elson and Morgan method described in the Materials and Methods section, the product formation in the samples was measured with and without the acetylation step. The amount of glucosamine was calculated as the difference between the assay results with and without the acetylation step. After 120 min approximately 74% of the substrate N-acetylglusosamine was converted to glucosamine.

For assay [2], the system named is S. cerevisiae strain BY4742. Kind of assay: Growth of S. cerevisiae strains in the presence of glucosamine (OD600). The assay is classed as cell-based, Saccharomyces cerevisiae. The note with it: BY4742 GFA1pESCHis. The protocol:
(§1) S. cerevisiae strains BY4742 and BY4743 transformed with pESCHis carrying the GFA1 insert were grown in 5 mL SC-His medium containing 2% glucose overnight at 30° C. with shaking. An aliquot (0.5 mL) from each culture was transferred to 6 flasks containing 50 mL of SC-His medium containing 2% glucose. Glucosamine at the following concentrations was added to the flasks: 0, 2, 6, 10, 15, 20 mg/mL for each strain. The incubation was continued for 28 h at 30° C. with shaking. At 3, 16 and 28 h samples were withdrawn and the optical density at 600 nm was measured.

In assay [3] the test system is S. cerevisiae strain BY4743. The description is as above. Type of assay: cell-based, Saccharomyces cerevisiae. The note with it: BY4743 GFA1pESCHis. The protocol:
as §1

For assay [4], the system named is S. cerevisiae strain BY4742. Described as above. Type of assay: cell-based, Saccharomyces cerevisiae. Particulars: parental strains of Examples 1-3 (BY4742 and BY4743); concentrations of glucosamine as high as 20 g/L.
The next assay relates to osteoarthritis. The note with it: patients; cited from earlier work.
Assay [5] concerns the target glucosamine-6-phosphate synthase (Escherichia coli, UniProt P17169). The note with it: White, Biochem. J. 106:847-858 (1968); cited from earlier work.

glucosamine-6-phosphate synthase, sequence (P17169 whole entry): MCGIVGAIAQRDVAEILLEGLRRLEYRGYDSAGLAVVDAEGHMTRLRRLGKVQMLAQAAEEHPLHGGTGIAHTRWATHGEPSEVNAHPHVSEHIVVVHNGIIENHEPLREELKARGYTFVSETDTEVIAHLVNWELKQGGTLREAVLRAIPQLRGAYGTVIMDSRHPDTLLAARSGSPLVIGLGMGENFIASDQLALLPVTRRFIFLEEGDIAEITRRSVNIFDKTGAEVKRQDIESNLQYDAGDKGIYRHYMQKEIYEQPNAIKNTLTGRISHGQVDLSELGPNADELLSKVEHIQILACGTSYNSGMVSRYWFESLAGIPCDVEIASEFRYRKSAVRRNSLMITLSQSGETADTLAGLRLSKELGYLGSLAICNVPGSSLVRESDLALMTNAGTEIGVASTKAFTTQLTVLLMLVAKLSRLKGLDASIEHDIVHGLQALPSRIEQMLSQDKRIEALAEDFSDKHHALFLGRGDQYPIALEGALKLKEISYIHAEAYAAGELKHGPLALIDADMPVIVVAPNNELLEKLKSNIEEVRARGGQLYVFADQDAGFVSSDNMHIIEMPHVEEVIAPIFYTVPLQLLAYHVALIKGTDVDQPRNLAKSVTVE

On to `CC(=O)N[C@@H](C=O)[C@@H](O)[C@H](O)[C@H](O)CO` [N-acetylglucosamine, 2-acetamino-2-deoxy-D-glucose], for which the “[Glucosamine]” value in assay [1] (0 min) worked out at 0.0 mM; in assay [1] (15 min), 126.3 mM; in assay [1] (30 min), 136.3 mM; in assay [1] (60 min), 161.3 mM; in assay [1] (120 min), 185.0 mM. Further, in assay [1] (after 120 min, nagA cell extract), the “substrate converted to glucosamine” value was “approximately 74%”.
Take `N[C@H]1C(O)O[C@H](CO)[C@@H](O)[C@@H]1O` (stereo partly shown) [glucosamine, 2-amino-2-deoxyglucopyranose]: the OD600 in assay [2] (glucosamine 2.0 mg/mL, 3 h) was determined as 0.71; in assay [2] (glucosamine 2.0 mg/mL, 16 h) it was 3.06; in assay [2] (glucosamine 2.0 mg/mL, 28 h) it was 3.32; in assay [2] (glucosamine 6.0 mg/mL, 3 h), 0.66; in assay [2] (glucosamine 6.0 mg/mL, 16 h), 2.98; in assay [2] (glucosamine 6.0 mg/mL, 28 h), 3.27. Further, the OD600 is reported as 0.64 in assay [2] (glucosamine 10.0 mg/mL, 3 h); 2.87 in assay [2] (glucosamine 10.0 mg/mL, 16 h); 3.06 in assay [2] (glucosamine 10.0 mg/mL, 28 h); 0.60 in assay [2] (glucosamine 15.0 mg/mL, 3 h); 2.92 in assay [2] (glucosamine 15.0 mg/mL, 16 h); 3.22 in assay [2] (glucosamine 15.0 mg/mL, 28 h). The OD600 is 0.57 in assay [2] (glucosamine 20.0 mg/mL, 3 h); 2.84 in assay [2] (glucosamine 20.0 mg/mL, 16 h); 3.02 in assay [2] (glucosamine 20.0 mg/mL, 28 h); 0.74 in assay [3] (glucosamine 2.0 mg/mL, 3 h); 4.12 in assay [3] (glucosamine 2.0 mg/mL, 16 h); 4.69 in assay [3] (glucosamine 2.0 mg/mL, 28 h). In addition, the OD600 in assay [3] (glucosamine 6.0 mg/mL, 3 h) was 0.76; in assay [3] (glucosamine 6.0 mg/mL, 16 h), 3.99; in assay [3] (glucosamine 6.0 mg/mL, 28 h), 5.02; in assay [3] (glucosamine 10.0 mg/mL, 3 h), 0.66; in assay [3] (glucosamine 10.0 mg/mL, 16 h), 4.18; in assay [3] (glucosamine 10.0 mg/mL, 28 h) it was 4.36. The OD600 came out at 0.68 in assay [3] (glucosamine 15.0 mg/mL, 3 h); 4.00 in assay [3] (glucosamine 15.0 mg/mL, 16 h); 4.14 in assay [3] (glucosamine 15.0 mg/mL, 28 h); 0.38 in assay [3] (glucosamine 20.0 mg/mL, 3 h); 3.78 in assay [3] (glucosamine 20.0 mg/mL, 16 h); 3.98 in assay [3] (glucosamine 20.0 mg/mL, 28 h). In assay [4], the “effect of glucosamine on the parental strains” value is listed as “not affected”. The “effect on joint structure” value in the assay on osteoarthritis is recorded as “improve joint structure”. Further, the “effect on pain of osteoarthritis” value in the assay on osteoarthritis is “reduce the pain of osteoarthritis in some patients”.
Take `N[C@H]1C(O)O[C@H](COP(=O)(O)O)[C@@H](O)[C@@H]1O` (stereo partly shown) [glucosamine-6-phosphate]: the “inhibition of glucosamine-6-phosphate synthase activity” value in assay [5] is “inhibited”.
